The values that follow come from ChEMBL document CHEMBL1201862, “PubChem BioAssay data set” (2004).

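Step 1: Grow cells in 96-well plates. Step 2: Expose to compound for 48 hours at 5 concentrations. Step 3: Interpolate endpoints linearly; if unreached, use highest concentration. Abbreviation: GI50, concentration required for 50% inhibition of growth.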 Calls of active or inactive are those of the source. No stated cut-off is given here; in the data, active = GI50 up to about 1.1 µM and inactive = higher.

Test systems include CCRF-CEM; Malme-3M; SF-539; PC-3; SF-295; SN12C; MOLT-4; MCF7; HT-29; HCC 2998; HCT-15; RPMI-8226; UACC-62; DU-145; OVCAR-4; COLO 205; KM12; SK-OV-3; T47D.
Assay in all cases: NCI tumour cell line growth inhibition, 48 h

For `N#Cc1c(N)nc2c(C#N)c(N)cc3c2c1Oc1ccccc1-3`, the GI50 in the assay with CCRF-CEM, in the assay on Malme-3M, in the assay on SF-539, in the assay on PC-3, in the assay on SF-295 and with SN12C was > 100 µM (inactive) throughout. The GI50 is > 100 µM (inactive) in the assay with MOLT-4; > 100 µM (inactive) in the assay on MCF7; > 100 µM (inactive) in the assay on HT-29; > 100 µM (inactive) in the assay with HCC 2998; more than 100 µM in the assay on HCT-15; > 100 µM (inactive) in the assay with RPMI-8226. Moreover, the GI50 in the assay on UACC-62 is > 100 µM (inactive); in the assay with DU-145, > 100 µM (inactive); with OVCAR-4, > 100 µM (inactive); in the assay with COLO 205, > 100 µM (inactive); with KM12, 74 µM (inactive); in the assay with SK-OV-3 it was > 100 µM (inactive). Also, the GI50 with T47D is > 100 µM (inactive).

On to `CC1=C2C(=C[C@@](C)(CO)[C@@H]2O)C(=O)[C@](C)(O)C12CC2` [ILLUDIN], for which the GI50 in the assay on CCRF-CEM is 0.0169 µM (active); in the assay with Malme-3M, 0.00889 µM (active); in the assay on SF-539, 0.00506 µM (active); in the assay with PC-3 it was 0.0143 µM (active); in the assay on SF-295, 0.00251 µM (active); in the assay on SN12C, 0.019 µM (active). Besides, the GI50 in the assay with MOLT-4 is 0.00731 µM (active); in the assay on MCF7, 0.00284 µM (active); in the assay on HT-29, 0.00341 µM (active); with HCC 2998, 0.013 µM (active); in the assay with HCT-15, 0.00675 µM; in the assay on RPMI-8226 it was 0.855 µM (active). Moreover, the GI50 with UACC-62 was 0.0129 µM (active); with DU-145 it was 0.0181 µM (active); with OVCAR-4 it was 0.00667 µM (active); with COLO 205, 0.00771 µM (active); in the assay with KM12, 0.0212 µM (active); with SK-OV-3 it was 0.00612 µM (active). Further, in the assay with T47D, the GI50 is 0.0123 µM (active).

As to `O=C(OC(=C(c1ccccc1)c1ccccc1)N1CCCC1=S)C(c1ccccc1)c1ccccc1`, the GI50 with CCRF-CEM is 3.94 µM (inactive); in the assay on Malme-3M, > 10 µM (inactive); in the assay on SF-539, > 10 µM (inactive); in the assay on PC-3, 3.24 µM (inactive); in the assay with SF-295, > 10 µM (inactive); in the assay with SN12C it was > 10 µM (inactive). Besides, the GI50 with MOLT-4 is 5.01 µM (inactive); in the assay with MCF7, 7.67 µM (inactive); in the assay with HT-29, 4.42 µM (inactive); with HCC 2998, 9.44 µM (inactive); in the assay with HCT-15, 4.13 µM; in the assay on RPMI-8226, 7.55 µM (inactive). In addition, the GI50 in the assay with UACC-62 is > 10 µM (inactive); with DU-145, > 10 µM (inactive); with OVCAR-4 it was 8.83 µM (inactive); with COLO 205, 2.21 µM (inactive); in the assay with KM12, 4.5 µM (inactive); in the assay on SK-OV-3, 9.18 µM (inactive). Also, the GI50 in the assay on T47D was 3.58 µM (inactive).

As for `CNC(=S)N/N=C1\C(=O)N(CN2CCOCC2)c2ccc([N+](=O)[O-])cc21`, the GI50 was 23.5 µM (inactive) with CCRF-CEM; 16.1 µM (inactive) in the assay on Malme-3M; 17.7 µM (inactive) in the assay with SF-539; 22.1 µM (inactive) in the assay on PC-3; 18.2 µM (inactive) in the assay on SF-295; 16.4 µM (inactive) in the assay on SN12C. Besides, the GI50 in the assay with MOLT-4 is 43.6 µM (inactive); in the assay on MCF7 it was 20.4 µM (inactive); with HT-29 it was 40.6 µM (inactive); in the assay with HCC 2998, 14.9 µM (inactive); in the assay with HCT-15 it was 12.9 µM; in the assay with RPMI-8226, 21.2 µM (inactive). Besides, the GI50 in the assay on UACC-62 was 15.3 µM (inactive); with DU-145, 13.7 µM (inactive); with OVCAR-4, 14.8 µM (inactive); in the assay with COLO 205 it was 26.9 µM (inactive); in the assay with KM12 it was 22.8 µM (inactive); in the assay on SK-OV-3 it was 16.8 µM (inactive). For the same molecule, the GI50 with T47D is 18.9 µM (inactive).

Regarding `COC1=C(Br)[C@H](O)[C@@]2(C=C1Br)CC(C(=O)NCCCOc1c(Br)cc(C(O)CNC(C)=O)cc1Br)=NO2` (stereo not given in full) [APLYSINAMISINE III], the GI50 in the assay with CCRF-CEM was > 10 µM (inactive); in the assay on Malme-3M, 6.03 µM (inactive); with SF-539 it was > 10 µM (inactive); with PC-3 it was > 10 µM (inactive); in the assay with SF-295 it was > 10 µM (inactive); with SN12C, > 10 µM (inactive). The GI50 is 7.73 µM (inactive) in the assay with MOLT-4; 6.18 µM (inactive) with MCF7; > 10 µM (inactive) with HT-29; > 10 µM (inactive) in the assay on HCC 2998; more than 10 µM in the assay with HCT-15; > 10 µM (inactive) with RPMI-8226. In addition, the GI50 in the assay with UACC-62, in the assay on DU-145, in the assay on OVCAR-4, in the assay with COLO 205, in the assay with KM12 and in the assay on SK-OV-3 was > 10 µM (inactive) throughout. Besides, in the assay with T47D, the GI50 is > 10 µM (inactive).

With `Cc1ccc([N+](=O)[O-])cc1S(=O)(=O)Nc1ccc(C(=O)/C=C/c2ccccc2)cc1`, the GI50 is 20 µM (inactive) with CCRF-CEM; 18.5 µM (inactive) in the assay with Malme-3M; 30.5 µM (inactive) with SF-539; 15.6 µM (inactive) with PC-3; 20.3 µM (inactive) in the assay on SF-295; 19.8 µM (inactive) with SN12C. The GI50 in the assay on MOLT-4 is 4.51 µM (inactive); in the assay with MCF7, 10.1 µM (inactive); in the assay on HT-29 it was 25.4 µM (inactive); with HCC 2998, 17.7 µM (inactive); with HCT-15, 19.5 µM; in the assay on RPMI-8226, 11.5 µM (inactive). Also, the GI50 is 13.2 µM (inactive) with UACC-62; 15.8 µM (inactive) in the assay with DU-145; 1.96 µM (inactive) in the assay with OVCAR-4; 20.6 µM (inactive) in the assay on COLO 205; 16.7 µM (inactive) in the assay with KM12; 31.3 µM (inactive) in the assay on SK-OV-3. Further, the GI50 in the assay on T47D is 16.3 µM (inactive).

Consider `CC1=C(O)C(=O)C=C2C1=CC=C1[C@@]2(C)CC[C@@]2(C)C3C[C@@H](C)C(=O)[C@@H](O)[C@]3(C)CC[C@]12C` (stereo not given in full), for which the GI50 in the assay on CCRF-CEM was 0.33 µM (active); in the assay on Malme-3M, 1.97 µM (inactive); in the assay with SF-539, 2.14 µM (inactive); in the assay on PC-3, 2.02 µM (inactive); with SF-295 it was 4.55 µM (inactive); in the assay with SN12C it was 2.08 µM (inactive). The GI50 was 0.745 µM (active) in the assay with MOLT-4; 2.77 µM (inactive) with MCF7; 1.97 µM (inactive) in the assay on HT-29; 2.95 µM (inactive) in the assay with HCC 2998; 1.91 µM with HCT-15; 1.25 µM (inactive) in the assay with RPMI-8226. For the same molecule, the GI50 in the assay with UACC-62 was 1.79 µM (inactive); with DU-145, 1.79 µM (inactive); in the assay with OVCAR-4, 3.32 µM (inactive); in the assay on COLO 205 it was 1.71 µM (inactive); in the assay on KM12, 5.86 µM (inactive); in the assay on SK-OV-3 it was 9.04 µM (inactive). Moreover, the GI50 in the assay with T47D is 1.64 µM (inactive).

For `COc1ccc(/C=C(\C#N)c2nc(-c3cc4ccccc4oc3=O)cs2)cc1`, the GI50 in the assay on CCRF-CEM is > 100 µM (inactive); with Malme-3M, 20.1 µM (inactive); with SF-539, 21 µM (inactive); in the assay with PC-3, 47.8 µM (inactive); in the assay with SF-295, 21.9 µM (inactive); with SN12C, 23.8 µM (inactive). Moreover, the GI50 in the assay with MOLT-4 was > 100 µM (inactive); with MCF7, 55.7 µM (inactive); in the assay on HT-29, 41.3 µM (inactive); in the assay on HCC 2998, 32.6 µM (inactive); with HCT-15 it was 51.6 µM; in the assay with RPMI-8226 it was 42.9 µM (inactive). For the same molecule, the GI50 with UACC-62 was 22.7 µM (inactive); with DU-145 it was 65.2 µM (inactive); in the assay on OVCAR-4 it was 23.9 µM (inactive); in the assay on COLO 205, 50.6 µM (inactive); in the assay on KM12, 24.3 µM (inactive); in the assay with SK-OV-3 it was 16.4 µM (inactive). In addition, the GI50 in the assay with T47D was 52.5 µM (inactive).

For `C=CC(=O)N1C/C(=C\c2ccc([N+](=O)[O-])cc2)C(=O)/C(=C/c2ccc([N+](=O)[O-])cc2)C1`, the GI50 in the assay with CCRF-CEM is 0.0565 µM (active); in the assay with Malme-3M, 0.201 µM (active); in the assay with SF-539, < 0.019 µM (active); in the assay with PC-3, 0.0698 µM (active); in the assay with SF-295, 0.208 µM (active); with SN12C, 0.195 µM (active). Also, the GI50 in the assay with MOLT-4 is 0.0791 µM (active); with MCF7 it was < 0.0243 µM (active); in the assay with HT-29, < 0.0176 µM (active); with HCC 2998, 0.161 µM (active); with HCT-15, 0.0253 µM; in the assay on RPMI-8226, 0.0193 µM (active). Besides, the GI50 is 0.21 µM (active) with UACC-62; 0.621 µM (active) in the assay on DU-145; 0.233 µM (active) with OVCAR-4; 0.0483 µM (active) in the assay with COLO 205; 0.175 µM (active) in the assay with KM12; 1.52 µM (inactive) with SK-OV-3. In the assay on T47D, the GI50 was 0.419 µM (active).

Regarding `Cc1ccc(-n2cnc3c(N)nc(N)nc32)cc1`, the GI50 is 43.1 µM (inactive) in the assay with CCRF-CEM; > 100 µM (inactive) in the assay on Malme-3M; > 100 µM (inactive) in the assay with SF-539; > 100 µM (inactive) with PC-3; > 100 µM (inactive) with SF-295; > 100 µM (inactive) in the assay on SN12C. Moreover, the GI50 with MOLT-4 is 44.7 µM (inactive); in the assay on MCF7, 66.5 µM (inactive); in the assay with HT-29, > 100 µM (inactive); in the assay with HCC 2998, 76.2 µM (inactive); in the assay with HCT-15, more than 100 µM; with RPMI-8226, > 100 µM (inactive). Moreover, the GI50 in the assay on UACC-62 was 84.1 µM (inactive); with DU-145 it was > 100 µM (inactive); in the assay on OVCAR-4, > 100 µM (inactive); in the assay on COLO 205 it was > 100 µM (inactive); in the assay on KM12, 42.6 µM (inactive); with SK-OV-3, > 100 µM (inactive). The GI50 in the assay with T47D is > 100 µM (inactive).
